The numbers were not newly measured in patent publication US8623825B2, “Edible fat composition for enhancing bone strength” (Enzymotec Ltd., priority 2007, dated 2014), which cites them from elsewhere.

Data set [1] concerns bone of post-menopausal women.
Data set [2] deals with vertebral bone. The note with it: independent of bone mineral density.

For `F` [fluoride], the Bone mass entry in data set [1] (fluoride treatment) is given as “increased bone mass”. For the same compound, in data set [1] (particularly non-vertebral bones), the Skeletal fragility result is on record as “increased skeletal fragility”. Take `O=C(c1ccc(OCCN2CCCCC2)cc1)c1c(-c2ccc(O)cc2)sc2cc(O)ccc12` [raloxifene]: the Vertebral bone strength entry in data set [2] was “significantly improved”.
